Assay results reported in patent US20250333397A1 (REMIX THERAPEUTICS INC., priority 2021, published 2025).
Like-named read-outs stand apart in the source and are kept apart here.

Assays:
Type in all cases: cell-based, human
SMN2 mRNA = assay: RT-qPCR splicing assay panel, SMN2 canonical junction (CJ) mRNA; conditions: Homo sapiens, canonical junction (CJ) mRNA, RT-qPCR panel, Table 4A; read-out: SMN2, decrease in CJ mRNA levels, IC50
How it was run: (§1)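 A673 (DMEM/10% FBS) or K562 (IMDM/10% FBS) cells treated 24 h at 37 °C with 11-point 3-fold dilutions, top 10 uM final, DMSO ≤0.25%. Lysates read by one-step RT-qPCR for CJ and AJ isoforms, normalized to GAPDH, GUSB or PPIA. ΔΔCt vs DMSO gives RQ via 2^(-ΔΔCt).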

HTT mRNA = assay: RT-qPCR splicing assay, HTT canonical (CJ) and alternative (AJ) junction mRNA; conditions: Homo sapiens; for AC50: read-out: HTT AJ (AC50, increase in AJ mRNA)
How it was run: as §1

MYB mRNA = assay: RT-qPCR splicing assay, MYB canonical (CJ) and alternative (AJ) junction mRNA; conditions: Homo sapiens; for AC50: read-out: MYB AJ (AC50, increase in AJ mRNA)
How it was run: as §1

Target C mRNA = assay: RT-qPCR splicing assay panel, Target C canonical junction (CJ) mRNA; conditions: Homo sapiens, canonical junction (CJ) mRNA, RT-qPCR panel, Table 4A; read-out: Target C, decrease in CJ mRNA levels, IC50
How it was run: as §1

[1] = 24 h, Table 3A, A673 or K562 cells, 24 h treatment
[2] = 24 h, Table 3A, A673 or K562 cells, 24 h treatment, read-out: HTT CJ (IC50, decrease in CJ mRNA)
[3] = canonical junction (CJ) mRNA, RT-qPCR panel, Table 4A, read-out: HTT, decrease in CJ mRNA levels, IC50
[4] = 24 h, Table 3A, A673 or K562 cells, 24 h treatment, read-out: MYB CJ (IC50, decrease in CJ mRNA)
[5] = canonical junction (CJ) mRNA, RT-qPCR panel, Table 4A, read-out: MYB, decrease in CJ mRNA levels, IC50

| SMILES | IC50 (SMN2 mRNA) | IC50 (HTT mRNA; [2]) | IC50 (HTT mRNA; [3]) | IC50 (MYB mRNA; [4]) | IC50 (MYB mRNA; [5]) | IC50 (Target C mRNA) | AC50 (HTT mRNA; [1]) | AC50 (MYB mRNA; [1]) |
| --- | --- | --- | --- | --- | --- | --- | --- | --- |
| COc1cc(-c2ccc(-c3ccc(N4CC[C@H](N(C)C(C)(C)C)C4)nn3)c(O)c2)cnn1 [Compound 337, 2-{6-[(3S)-3-[tert-butyl(methyl)amino]pyrrolidin-1-yl]pyridazin-3-yl}-5-(6-methoxypyridazin-4-yl)phenol] | < 100 nM | < 100 nM | < 100 nM | < 100 nM | < 100 nM | < 100 nM | < 100 nM | < 100 nM |
| Cc1ncc(-c2cc(O)c(-c3ccc(N4CC[C@@H](NC(C)(C)C)C4)nn3)cc2F)s1 [Compound 338, 2-{6-[(3R)-3-(tert-butylamino)pyrrolidin-1-yl]pyridazin-3-yl}-4-fluoro-5-(2-methyl-1,3-thiazol-5-yl) phenol] | < 100 nM | < 100 nM | < 100 nM | < 100 nM | < 100 nM | < 100 nM | < 100 nM | < 100 nM |
| Cc1ncc(-c2cc(O)c(-c3ccc(N4CC[C@@H](N(C)C(C)(C)C)C4)nn3)cc2F)s1 [Compound 339, 2-{6-[(3R)-3-[tert-butyl(methyl)amino]pyrrolidin-1-yl]pyridazin-3-yl}-4-fluoro-5-(2-methyl-1,3-thiazol-5-yl)phenol] | < 100 nM | < 100 nM | < 100 nM | < 100 nM | < 100 nM | < 100 nM | < 100 nM | < 100 nM |
| Cc1ncc(-c2cc(O)c(-c3ccc(N4CCC(CNC5CCC5)C4)nn3)cc2F)s1 (stereo not shown) [Compound 342, 2-(6-{3-[(cyclobutylamino)methyl]pyrrolidin-1-yl}pyridazin-3-yl)-4-fluoro-5-(2-methyl-1,3-thiazol-5-yl)phenol] | < 100 nM | < 100 nM | < 100 nM | > 10000 nM | > 10000 nM | < 100 nM | < 100 nM | 1000 to 10000 nM |
| COc1cc(-c2ccc(-c3cc(C#N)c(N4CC[C@H](NC5CCC5)C4)nn3)c(O)c2)cnn1 [Compound 343, 3-[(3S)-3-(cyclobutylamino)pyrrolidin-1-yl]-6-[2-hydroxy-4-(6-methoxypyridazin-4-yl)phenyl]pyridazine-4-carbonitrile] | 100 to 1000 nM | 100 to 1000 nM | 100 to 1000 nM | > 10000 nM | > 10000 nM | 1000 to 10000 nM | 1000 to 10000 nM | > 10000 nM |
| Cc1ncc(-c2ccc(-c3ccc(N4CCC(NC5CCC5)C4)nn3)cc2F)s1 (stereo not shown) [Compound 344] | 100 to 1000 nM | 1000 to 10000 nM | 1000 to 10000 nM | 1000 to 10000 nM | 1000 to 10000 nM | 1000 to 10000 nM | 1000 to 10000 nM | 1000 to 10000 nM |
| Oc1cc(-n2cnnc2)ccc1-c1ccc(N2CCC(NC3CCC3)C2)nn1 (stereo not shown) [Compound 345] | 100 to 1000 nM | 1000 to 10000 nM | 1000 to 10000 nM | 1000 to 10000 nM | 1000 to 10000 nM | > 10000 nM | 1000 to 10000 nM | 1000 to 10000 nM |
| Cc1ncc(-c2ccc(-c3ccc(N4CCC(NC5CCC5)C4)nn3)c(O)c2)o1 (stereo not shown) [Compound 347, 2-{6-[3-(cyclobutylamino)pyrrolidin-1-yl]pyridazin-3-yl}-5-(2-methyl-1,3-oxazol-5-yl)phenol] | < 100 nM | 100 to 1000 nM | 100 to 1000 nM | 100 to 1000 nM | 100 to 1000 nM | 100 to 1000 nM | 100 to 1000 nM | 100 to 1000 nM |
| COc1cc(-c2ccc(-c3ccc(N4CCC(CNC5CCC5)C4)nn3)c(O)c2)cnn1 (stereo not shown) [Compound 348, 2-(6-{3-[(cyclobutylamino)methyl]pyrrolidin-1-yl}pyridazin-3-yl)-5-(6-methoxypyridazin-4-yl)phenol] | < 100 nM | < 100 nM | < 100 nM | 100 to 1000 nM | 100 to 1000 nM | 100 to 1000 nM | 100 to 1000 nM | 1000 to 10000 nM |
| CN(c1ccc(-c2ccc(-c3cn[nH]c3)cc2O)nn1)C1CC(C)(C)NC(C)(C)C1 [Compound 360] | < 100 nM | < 100 nM | < 100 nM | < 100 nM | < 100 nM | < 100 nM | < 100 nM | < 100 nM |

The next lines start with results.

| IC50 (SMN2 mRNA) | IC50 (HTT mRNA; [2]) | IC50 (HTT mRNA; [3]) | IC50 (MYB mRNA; [4]) | IC50 (MYB mRNA; [5]) | IC50 (Target C mRNA) | SMILES | AC50 (HTT mRNA; [1]) | AC50 (MYB mRNA; [1]) |
| --- | --- | --- | --- | --- | --- | --- | --- | --- |
| 100 to 1000 nM | 100 to 1000 nM | 100 to 1000 nM | 100 to 1000 nM | 100 to 1000 nM | 1000 to 10000 nM | Cc1ncc(-c2ccc(-c3ccc(N4CCC(NC5CCC5)C4)nn3)nc2F)s1 (stereo not shown) [Compound 349] | 100 to 1000 nM | 100 to 1000 nM |
| < 100 nM | < 100 nM | < 100 nM | < 100 nM | < 100 nM | < 100 nM | Cc1ncc(-c2cc(O)c(-c3ccc(N4CCC(NC5CCOC5)C4)nn3)cc2F)s1 (stereo not shown) [Compound 350, 4-fluoro-5-(2-methyl-1,3-thiazol-5-yl)-2-{6-[3-(oxolan-3-ylamino)pyrrolidin-1-yl]pyridazin-3-yl}phenol] | < 100 nM | 100 to 1000 nM |
| 100 to 1000 nM | < 100 nM | < 100 nM | 100 to 1000 nM | 100 to 1000 nM | 100 to 1000 nM | COc1cc(-c2ccc(-c3ccc(N4CCC(CNC(C)(C)C)C4)nn3)c(O)c2)cnn1 (stereo not shown) [Compound 351, 2-(6-{3-[(tert-butylamino)methyl]pyrrolidin-1-yl}pyridazin-3-yl)-5-(6-methoxypyridazin-4-yl)phenol] | 100 to 1000 nM | 1000 to 10000 nM |
| 100 to 1000 nM | 100 to 1000 nM | 100 to 1000 nM | 100 to 1000 nM | 100 to 1000 nM | 100 to 1000 nM | COc1cc(-c2ccc(-c3ccc(N4CCC(NC5CC(C)(C)C5)C4)nn3)c(O)c2)cnn1 (stereo not shown) [Compound 352, 2-(6-{3-[(3,3-dimethylcyclobutyl)amino]pyrrolidin-1-yl}pyridazin-3-yl)-5-(6-methoxypyridazin-4-yl)phenol] | 100 to 1000 nM | 1000 to 10000 nM |
| < 100 nM | 100 to 1000 nM | 100 to 1000 nM | 1000 to 10000 nM | 1000 to 10000 nM | 100 to 1000 nM | COc1cc(-c2ccc(-c3ccc(N4CCC(NC5CC6(CCC6)C5)C4)nn3)c(O)c2)cnn1 (stereo not shown) [Compound 353, 5-(6-methoxypyridazin-4-yl)-2-[6-(3-{spiro[3.3]heptan-2-ylamino}pyrrolidin-1-yl)pyridazin-3-yl]phenol] | 100 to 1000 nM | 1000 to 10000 nM |
| < 100 nM | < 100 nM | < 100 nM | 100 to 1000 nM | 100 to 1000 nM | < 100 nM | Cc1ncc(-c2cc(O)c(-c3ccc(N4CCC(NC5CCOCC5)C4)nn3)cc2F)s1 (stereo not shown) [Compound 354, 4-fluoro-5-(2-methyl-1,3-thiazol-5-yl)-2-{6-[3-(oxan-4-ylamino)pyrrolidin-1-yl]pyridazin-3-yl}phenol] | < 100 nM | < 100 nM |
| < 100 nM | < 100 nM | < 100 nM | 100 to 1000 nM | 100 to 1000 nM | < 100 nM | COc1nc(-c2ccc(N3CCC(NC(C)(C)C)C3)nn2)ccc1-c1cnc(C)s1 (stereo not shown) [Compound 355] | < 100 nM | 100 to 1000 nM |
| < 100 nM | < 100 nM | < 100 nM | 100 to 1000 nM | 100 to 1000 nM | 100 to 1000 nM | Cc1ncc(-c2ccc(-c3ccc(N4CC[C@@](C)(NC5CCC5)C4)nn3)c(O)c2)s1 [Compound 356] | < 100 nM | 100 to 1000 nM |
| < 100 nM | < 100 nM | < 100 nM | 100 to 1000 nM | 100 to 1000 nM | < 100 nM | Cc1ncc(-c2ccc(-c3ccc(N4CC[C@](C)(NC5CCC5)C4)nn3)c(O)c2)s1 [Compound 357] | < 100 nM | 100 to 1000 nM |
| 100 to 1000 nM | 100 to 1000 nM | 100 to 1000 nM | 1000 to 10000 nM | 1000 to 10000 nM | 1000 to 10000 nM | Cc1nnc(-c2cc(O)c(-c3ccc(N4CC[C@H](NC5CCC5)C4)nn3)cc2F)s1 [Compound 358] | 1000 to 10000 nM | 1000 to 10000 nM |
| 100 to 1000 nM | 100 to 1000 nM | 100 to 1000 nM | 1000 to 10000 nM | 1000 to 10000 nM | 1000 to 10000 nM | Cc1nnc(-c2cc(O)c(-c3ccc(N4CC[C@@H](NC5CCC5)C4)nn3)cc2F)s1 [Compound 359] | 1000 to 10000 nM | 1000 to 10000 nM |
| < 100 nM | < 100 nM | < 100 nM | 100 to 1000 nM | 100 to 1000 nM | < 100 nM | CC1(C)CC(Oc2ccc(-c3cc(F)c(-c4cn[nH]c4)cc3O)nn2)CC(C)(C)N1 [Compound 361] | < 100 nM | < 100 nM |
| 100 to 1000 nM | 100 to 1000 nM | 100 to 1000 nM | 1000 to 10000 nM | 1000 to 10000 nM | 100 to 1000 nM | Oc1cc(-c2cnn3c2CCC3)ccc1-c1ccc(N2CCC(NC3CCC3)C2)nn1 (stereo not shown) [Compound 362] | 1000 to 10000 nM | 100 to 1000 nM |
